According to ChEMBL document CHEMBL6092220 (J Med Chem, 2024):

What was measured:
[1] = Chemical stability of the compound in PBS buffer at pH 8; assay type: physicochemical
[2] = Chemical stability of the compound in PBS buffer at pH 7.4; assay type: physicochemical
[3] = biological target: T1, Signal transducer and activator of transcription 3 (Homo sapiens, UniProt P40763); experiment: Binding affinity to STAT3 (unknown origin) assessed as inhibition constant
[4] = Chemical stability of the compound in PBS buffer at pH 4; assay type: physicochemical
[5] = Chemical stability of the compound in PBS buffer assessed as half life at pH 7.4; assay type: physicochemical
[6] = Chemical stability of the compound in PBS buffer assessed as half life at pH 8; assay type: physicochemical
[7] = Chemical stability of the compound in PBS buffer assessed as half life at pH 4; assay type: physicochemical
[8] = biological target: Protein cereblon/Signal transducer and activator of transcription 4 (Homo sapiens, UniProt Q96SW2+Q14765); experiment: PROTAC activity at STAT4/CRBN in human SU-DHL-1 cells assessed as reduction in STAT4 level incubated for 20 hrs by Western blot analysis; assay type: cell-based; settings: dose <= 40.0 µM
[9] = biological target: Signal transducer and activator of transcription 4 (Homo sapiens) (UniProt Q14765); experiment: Binding affinity to STAT4 (unknown origin) assessed as maximum inhibition by FP assay relative to control
[10] = biological target: Signal transducer and activator of transcription 4 (Homo sapiens, UniProt Q14765); experiment: Binding affinity to STAT4 (unknown origin) by FP assay
[11] = Binding affinity to STAT5 (unknown origin) by FP assay; set-up: species or system Homo sapiens
[12] = biological target: T2, Protein cereblon/Signal transducer and activator of transcription 3 (Homo sapiens, UniProt P40763+Q96SW2); experiment: PROTAC activity at his-SUMO-tagged STAT3 (127 to 688 residues)/CRBN in human HeLa cells assessed as induction of STAT3 degradation incubated for 24 hrs by TECAN SPARK microplate reader analysis relative to control; assay type: cell-based
[13] = biological target: T2, Protein cereblon/Signal transducer and activator of transcription 3; experiment: PROTAC activity at his-SUMO-tagged STAT3 (127 to 688 residues)/CRBN in human HeLa cells assessed as induction of STAT3 degradation incubated for 24 hrs by TECAN SPARK microplate reader analysis; assay type: cell-based
[14] = tested on: SU-DHL-1; experiment: Antiproliferative activity against human SU-DHL-1 cells assessed as cell growth inhibition incubated for 4 days by celltiter-glo assay; assay type: functional, cell-based; settings: SU-DHL-1, 96 h
[15] = biological target: T1, Signal transducer and activator of transcription 3; experiment: Binding affinity to STAT3 (unknown origin) assessed as maximum inhibition by FP assay relative to control
[16] = Antiproliferative activity against human MOLM16 cells assessed as cell growth inhibition incubated for 4 days by celltiter-glo assay; assay type: functional, cell-based, MOLM-16; settings: MOLM16, 96 h
[17] = biological target: Signal transducer and activator of transcription 1-alpha/beta (Homo sapiens) (UniProt P42224); experiment: Binding affinity to STAT1 (unknown origin) assessed as maximum inhibition by FP assay relative to control
[18] = biological target: Signal transducer and activator of transcription 6 (Homo sapiens) (UniProt P42226); experiment: Binding affinity to STAT6 (unknown origin) assessed as maximum inhibition by FP assay relative to control
[19] = biological target: Signal transducer and activator of transcription 1-alpha/beta (Homo sapiens, UniProt P42224); experiment: Binding affinity to STAT1 (unknown origin) by FP assay
[20] = biological target: Signal transducer and activator of transcription 6 (Homo sapiens, UniProt P42226); experiment: Binding affinity to STAT6 (unknown origin) by FP assay
[21] = Antiproliferative activity against human SUPM2 cells assessed as cell growth inhibition incubated for 4 days by celltiter-glo assay; assay type: functional, cell-based; settings: SUP-M2, 96 h
[22] = biological target: T3, Protein cereblon/Signal transducer and activator of transcription 3 (Mus musculus) (UniProt P42227+Q8C7D2); experiment: In-vivo PROTAC activity at STAT3/CRBN in female CB17 SCID mouse assessed as reduction STAT3 level spleen at 10 mg/kg, iv measured at 24 hrs by Western blot analysis; assay type: functional, organism-based; set-up: scale not given: the % may be the effect or the level left
[23] = biological target: T3, Protein cereblon/Signal transducer and activator of transcription 3 (Mus musculus); experiment: In-vivo PROTAC activity at STAT3/CRBN in female CB17 SCID mouse assessed as reduction STAT3 level liver at 10 mg/kg, iv measured at 24 hrs by Western blot analysis; assay type: functional, organism-based; set-up: scale not given: the % may be the effect or the level left

## CN1CC[C@H]2CC[C@@H](C(=O)N[C@@H](CCC(N)=O)C(=O)NC(c3ccccc3)c3ccccc3)N2C(=O)[C@@H](NC(=O)c2cc3cc(C(F)(F)P(=O)(O)O)ccc3s2)C1
[1]
  Stability: Stable
[2]
  Stability: Stable
[3]
  Ki: 6 nM
[4]
  Stability: Stable

## CN1CC[C@H]2CC[C@@H](C(=O)N[C@@H](CCC(N)=O)C(=O)NC(c3ccccc3)c3ccccc3)N2C(=O)[C@@H](NC(=O)c2cc3cc(C(F)(F)P(=O)(O)O)ccc3[nH]2)C1
[5]
  t1/2: 2 h
[6]
  t1/2: 2 h
[7]
  t1/2: 4 h

## NC(=O)CC[C@H](NC(=O)[C@@H]1CC[C@@H]2CCN(C(=O)CCCCCC#Cc3cccc4c3CN(C3CCC(=O)NC3=O)C4=O)C[C@H](NC(=O)c3cc4cc(C(F)(F)P(=O)(O)O)ccc4[nH]3)C(=O)N21)C(=O)NC(c1ccccc1)c1ccccc1 (stereo partly specified)
[8]
  Activity: Dose-dependent-effect
[9]
  Imax: 93%
[10]
  IC50: 1100 nM
[11]
  IC50: > 10 nM
[12]
  Emax: 86%
[13]
  DC50: 400 nM
[14]
  IC50: 330 nM
[15]
  Imax: 100%
[16]
  IC50: 30 nM
[17]
  Imax: 92%
[18]
  Imax: 0%
[19]
  IC50: 1300 nM
[20]
  IC50: > 10000 nM
[21]
  IC50: 490 nM

## CN1CC[C@H]2CC[C@@H](C(=O)N[C@@H](CCC(N)=O)C(=O)N[C@@H](Cc3ccccc3)C(=O)N3CCC(CCC#Cc4cccc5c4CN(C4CCC(=O)NC4=O)C5=O)CC3)N2C(=O)[C@@H](NC(=O)c2cc3cc(C(F)(F)P(=O)(O)O)ccc3s2)C1 (stereo partly specified)
[22]
  Activity: 50%
[11]
  IC50: > 10 nM
[12]
  Emax: 94%
[13]
  DC50: 130 nM
[23]
  Activity: 60%
